Test results from US12384789B2, “Compounds for treating Huntington's disease” (PTC Therapeutics, Inc., priority 2017, dated 2025).

Test system: Endogenous Huntingtin Protein
Assay: Endogenous Huntingtin Protein Assay (Meso Scale Discovery ELISA-based electrochemiluminescence)
Type: cell-based
Details: MSD electrochemiluminescence, Table 1
Method in brief: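 MSD electrochemiluminescence sandwich ELISA: MW1 (expanded polyQ) or MAB2166 capture antibody at 1 μg/mL, samples incubated overnight at 4° C. Detection with rabbit monoclonal #5656S then SULFO-TAG anti-rabbit antibody, each 0.25 μg/mL for 1 h at room temperature.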

SMILES	IC50 [nM]
CCN1CCC(c2cc3c(F)cc(-c4cc(C)c5nc(C)sc5c4)cc3nn2)CC1 [Compound 120, 7-(2,4-dimethyl-1,3-benzothiazol-6-yl)-3-(1-ethylpiperidin-4-yl)-5-fluorocinnoline]	1000 to 3000
Cc1cc(-c2cc3c(F)cc(C4=CCNCC4)cc3nn2)cc2cn(C)nc12 [Compound 157, 3-(2,7-dimethyl-2H-indazol-5-yl)-5-fluoro-7-(1,2,3,6-tetrahydropyridin-4-yl)cinnoline]	≤ 100
Cc1cn2nc(-c3cc(F)c4cc(C5CCCN(C)CC5)nnc4c3)cc(C)c2n1 (stereo not drawn) [Compound 188, 7-(2,8-dimethylimidazo[1,2-b]pyridazin-6-yl)-5-fluoro-3-(1-methylazepan-4-yl)cinnoline]	≤ 100
Cc1cc2oc(-c3cc(F)c4cc(C5CCN(CCO)CC5)nnc4c3)nc2c(C)n1 [Compound 213, 2-{4-[7-(4,6-dimethyl[1,3]oxazolo[4,5-c]pyridin-2-yl)-5-fluorocinnolin-3-yl]piperidin-1-yl}ethan-1-ol]	100 to 500
Cc1cn2nc(-c3cc(F)c4cc(C5C[C@@H](C)N(CCF)[C@@H](C)C5)nnc4c3)cc(C)c2n1 (stereo partly drawn) [Compound 170, 7-(2,8-dimethylimidazo[1,2-b]pyridazin-6-yl)-5-fluoro-3-[(2R,6S)-1-(2-fluoroethyl)-2,6-dimethylpiperidin-4-yl]cinnoline]	100 to 500
Cc1cn2nc(-c3cc(F)c4cc(N5C[C@@H]6C[C@H]5CN6C)nnc4c3)cc(C)c2n1 [Compound 215, 7-(2,8-dimethylimidazo[1,2-b]pyridazin-6-yl)-5-fluoro-3-[(1S,4S)-5-methyl-2,5-diazabicyclo[2.2.1]heptan-2-yl]cinnoline]	≤ 100
Cc1cn2nc(-c3cc(F)c4cc(C5CCN(CCF)CC5)nnc4c3)cc(CO)c2n1 [Compound 182, (6-{5-fluoro-3-[1-(2-fluoroethyl)piperidin-4-yl]cinnolin-7-yl}-2-methylimidazo[1,2-b]pyridazin-8-yl)methanol]	≤ 100
Cn1cc2cc(-c3nnc4cc(C5CCNCC5)ccc4n3)cc(C#N)c2n1 [Compound 26, 2-methyl-5-[7-(piperidin-4-yl)-1,2,4-benzotriazin-3-yl]-2H-indazole-7-carbonitrile]	≤ 100
Cc1cc(-c2cc(F)c3cc(C4=CCNCC4)nnc3c2)cc2cn(C)nc12 [Compound 55, 7-(2,7-dimethyl-2H-indazol-5-yl)-5-fluoro-3-(1,2,3,6-tetrahydropyridin-4-yl)cinnoline]	≤ 100
CCCN1CCC(c2cc3c(F)cc(-c4cc(C)c5nc(C)cn5n4)cc3nn2)CC1 [Compound 77, 7-(2,8-dimethylimidazo[1,2-b]pyridazin-6-yl)-5-fluoro-3-(l-propylpiperidin-4-yl)cinnoline]	≤ 100
Cc1cn2cc(-c3nnc4cc(C5CC6CCC(C5)N6)ccc4n3)cc(F)c2n1 (stereo not drawn) [Compound 56, 7-(8-azabicyclo[3.2.1]oct-3-yl)-3-(8-fluoro-2-methylimidazo[1,2-a]pyridin-6-yl)-1,2,4-benzotriazine]	≤ 100
Cc1cc(-c2ccc3nc(N(C)C4CC(C)(C)NC(C)(C)C4)ccc3c2)cc2cn(C)nc12 [Compound 11, 6-(2,7-dimethyl-2H-indazol-5-yl)-N-methyl-N-(2,2,6,6-tetramethylpiperidin-4-yl)quinolin-2-amine]	1000 to 3000
Cn1cc2cc(-c3cc4ccc(C5=CCNCC5)cc4nn3)ccc2n1 [Compound 4, 3-(2-methyl-2H-indazol-5-yl)-7-(1,2,3,6-tetrahydropyridin-4-yl)cinnoline]	500 to 1000
CCN1CCC(c2ccc3cc(-c4ccc5nn(C)cc5c4)ccc3n2)CC1 [Compound 9, 2-(1-ethylpiperidin-4-yl)-6-(2-methyl-2H-indazol-5-yl)quinoline]	1000 to 3000
Cc1cn2nc(-c3cc(F)c4cc(N5CC6CC5CN6C)nnc4c3)cc(C)c2n1 (stereo not drawn) [Compound 209, 7-(2,8-dimethylimidazo[1,2-b]pyridazin-6-yl)-5-fluoro-3-(5-methyl-2,5-diazabicyclo[2.2.1]heptan-2-yl)cinnoline]	100 to 500
Cc1cn2nc(-c3cc(F)c4cc(C5C[C@@H](C)N[C@@H](C)C5)nnc4c3)cc(C)c2n1 (stereo partly drawn) [Compound 90, 7-(2,8-dimethylimidazo[1,2-b]pyridazin-6-yl)-3-[(2R,4r,6S)-2,6-dimethylpiperidin-4-yl]-5-fluorocinnoline]	≤ 100
Cc1cn2nc(-c3cc(F)c4cc(N5CCC(C)(N(C)C)CC5)nnc4c3)cc(C)c2n1 [Compound 224, 1-[7-(2,8-dimethylimidazo[1,2-b]pyridazin-6-yl)-5-fluorocinnolin-3-yl]-N,N,4-trimethylpiperidin-4-amine]	≤ 100
CCN1CCC(c2cc3c(F)cc(-c4cc(CC#N)c5nc(C)cn5n4)cc3nn2)CC1 [Compound 205, {6-[3-(1-ethylpiperidin-4-yl)-5-fluorocinnolin-7-yl]-2-methylimidazo[1,2-b]pyridazin-8-yl}acetonitrile]	100 to 500
CCc1cc(-c2cc(F)c3cc(C4CCN(CC)CC4)nnc3c2)nn2cc(C)nc12 [Compound 121, 7-(8-ethyl-2-methylimidazo[1,2-b]pyridazin-6-yl)-3-(1-ethylpiperidin-4-yl)-5-fluorocinnoline]	≤ 100
CCN1CCC(c2cnc3cc(-c4cc(C)c5nc(C)cn5n4)cc(F)c3n2)CC1 [Compound 110, 6-(2,8-dimethylimidazo[1,2-b]pyridazin-6-yl)-2-(1-ethylpiperidin-4-yl)-8-fluoroquinoxaline]	≤ 100

Now from value to compound:

IC50 [nM]	SMILES
≤ 100	Cn1cc2cc(-c3cc4c(F)cc(C5CCNCC5)cc4nn3)cc(F)c2n1 [Compound 151, 5-fluoro-3-(7-fluoro-2-methyl-2H-indazol-5-yl)-7-(piperidin-4-yl)cinnoline]
≤ 100	CCCc1cc(-c2cc(F)c3cc(C4CCNCC4)nnc3c2)nn2cc(C)nc12 [Compound 204, 5-fluoro-7-(2-methyl-8-propylimidazo[1,2-b]pyridazin-6-yl)-3-(piperidin-4-yl)cinnoline]
≤ 100	Cc1nc2c(F)cc(-c3cc(F)c4nc(C5CCNCC5)nnc4c3)cc2o1 [Compound 68, 5-fluoro-7-(4-fluoro-2-methyl-1,3-benzoxazol-6-yl)-3-(piperidin-4-yl)-1,2,4-benzotriazine]
≤ 100	Cn1cc2cc(-c3nnc4cc(C5CCNCC5)ccc4n3)cc(F)c2n1 [Compound 25, 3-(7-fluoro-2-methyl-2H-indazol-5-yl)-7-(piperidin-4-yl)-1,2,4-benzotriazine]
≤ 100	COc1cc(-c2cc(F)c3nc(C4CCNCC4)ccc3c2)cc2cn(C)nc12 [Compound 49, 8-fluoro-6-(7-methoxy-2-methyl-2H-indazol-5-yl)-2-(piperidin-4-yl)quinoline]
100 to 500	Cc1cn2cc(-c3cc(F)c4cc(C5CCNCC5)nnc4c3)nc2c(C)n1 [Compound 116, 7-(6,8-dimethylimidazo[1,2-a]pyrazin-2-yl)-5-fluoro-3-(piperidin-4-yl)cinnoline]
≤ 100	Cn1cc2cc(-c3cc(F)c4cc(C5CCNCC5)nnc4c3)cc(F)c2n1 [Compound 96, 5-fluoro-7-(7-fluoro-2-methyl-2H-indazol-5-yl)-3-(piperidin-4-yl)cinnoline]
≤ 100	Cc1cn2nc(-c3cc(F)c4cc(C5CCNCC5)nnc4c3)ccc2n1 [Compound 99, 5-fluoro-7-(2-methylimidazo[1,2-b]pyridazin-6-yl)-3-(piperidin-4-yl)cinnoline]
100 to 500	Cc1cc(-c2ccc3nc(C4CCNCC4)nnc3c2)cc2cn(C)nc12 [Compound 16, 7-(2,7-dimethyl-2H-indazol-5-yl)-3-(piperidin-4-yl)-1,2,4-benzotriazine]
≤ 100	Cn1cc2cc(-c3ccc4cc(C5CCNCC5)cc(F)c4n3)cc(F)c2n1 [Compound 192, 8-fluoro-2-(7-fluoro-2-methyl-2H-indazol-5-yl)-6-(piperidin-4-yl)quinoline]
≤ 100	Cc1cn2nc(-c3cc(F)c4cc(C5CCNCC5)nnc4c3)cc(OCCCn3cccn3)c2n1 [Compound 141, 5-fluoro-7-{2-methyl-8-[3-(1H-pyrazol-1-yl)propoxy]imidazo[1,2-b]pyridazin-6-yl}-3-(piperidin-4-yl)cinnoline]
≤ 100	Cc1nc2c(C)cc(-c3cc(F)c4cc(C5CCNCC5)nnc4c3)nc2[nH]1 [Compound 126, 7-(2,7-dimethyl-3H-imidazo[4,5-b]pyridin-5-yl)-5-fluoro-3-(piperidin-4-yl)cinnoline]
≤ 100	Cc1cc2nc(-c3cc(F)c4cc(C5CCNCC5)nnc4c3)sc2c(C)n1 [Compound 196, 7-(4,6-dimethyl[1,3]thiazolo[5,4-c]pyridin-2-yl)-5-fluoro-3-(piperidin-4-yl)cinnoline]
≤ 100	Cc1cn2nc(-c3cc(F)c4cc(C5CCNCC5)nnc4c3)cc(OCCCN(C)C)c2n1 [Compound 139, 3-({6-[5-fluoro-3-(piperidin-4-yl)cinnolin-7-yl]-2-methylimidazo[1,2-b]pyridazin-8-yl}oxy)-N,N-dimethylpropan-1-amine]
≤ 100	Cc1nc2c(C)cc(-c3cc(F)c4cc(C5CCNCC5)nnc4c3)nc2s1 [Compound 133, 7-(2,7-dimethyl[1,3]thiazolo[5,4-b]pyridin-5-yl)-5-fluoro-3-(piperidin-4-yl)cinnoline]
≤ 100	Cc1cc2cc(-c3cc(F)c4cc(C5CCNCC5)nnc4c3)oc2c(C)n1 [Compound 146, 7-(5,7-dimethylfuro[2,3-c]pyridin-2-yl)-5-fluoro-3-(piperidin-4-yl)cinnoline]
≤ 100	Cc1cn2cc(-c3cc(F)c4cc(C5CCNCC5)nnc4c3)ccc2n1 [Compound 210, 5-fluoro-7-(2-methylimidazo[1,2-a]pyridin-6-yl)-3-(piperidin-4-yl)cinnoline]
100 to 500	Cn1cc2cc(-c3ccc4nc(C5CCNCC5)cnc4c3)cc(C(F)(F)F)c2n1 [Compound 24, 6-[2-methyl-7-(trifluoromethyl)-2H-indazol-5-yl]-2-(piperidin-4-yl)quinoxaline]
≤ 100	Cc1cn2cc(-c3cc(F)c4cc(C5CCNCC5)nnc4c3)cc2c(C)n1 [Compound 101, 7-(1,3-dimethylpyrrolo[1,2-a]pyrazin-7-yl)-5-fluoro-3-(piperidin-4-yl)cinnoline]
